Results from ChEMBL document CHEMBL1137916, “5-Amidinoindoles as dual inhibitors of coagulation factors IXa and Xa” (Bioorg Med Chem Lett, 2004).

Legend:
Coagulation factor X = Coagulation factor X (Homo sapiens, UniProt P00742); experiment: Binding affinity towards human factor Xa
Coagulation factor IX = Coagulation factor IX (Homo sapiens, UniProt P00740); experiment: Binding affinity towards human factor IXa
Sequence of Coagulation factor IX (P00740 47-191 limits assumed): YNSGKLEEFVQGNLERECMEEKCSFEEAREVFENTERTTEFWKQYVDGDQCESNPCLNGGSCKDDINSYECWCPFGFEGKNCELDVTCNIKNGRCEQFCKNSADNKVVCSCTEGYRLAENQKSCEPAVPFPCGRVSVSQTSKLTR
Sequence of Coagulation factor IX (P00740 227-461 limits assumed): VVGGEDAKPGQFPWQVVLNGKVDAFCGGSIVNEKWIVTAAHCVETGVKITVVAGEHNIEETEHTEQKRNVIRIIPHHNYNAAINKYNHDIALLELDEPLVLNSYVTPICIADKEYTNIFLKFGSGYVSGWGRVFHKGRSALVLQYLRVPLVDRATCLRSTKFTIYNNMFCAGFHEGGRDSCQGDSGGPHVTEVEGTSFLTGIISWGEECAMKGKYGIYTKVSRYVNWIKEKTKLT

Sequence of Coagulation factor X (P00742 41-179 limits assumed): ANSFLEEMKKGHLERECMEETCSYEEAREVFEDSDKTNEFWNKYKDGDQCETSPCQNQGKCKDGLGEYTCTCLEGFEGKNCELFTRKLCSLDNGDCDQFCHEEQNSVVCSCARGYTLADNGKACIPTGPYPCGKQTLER
Sequence of Coagulation factor X (P00742 235-488 limits assumed): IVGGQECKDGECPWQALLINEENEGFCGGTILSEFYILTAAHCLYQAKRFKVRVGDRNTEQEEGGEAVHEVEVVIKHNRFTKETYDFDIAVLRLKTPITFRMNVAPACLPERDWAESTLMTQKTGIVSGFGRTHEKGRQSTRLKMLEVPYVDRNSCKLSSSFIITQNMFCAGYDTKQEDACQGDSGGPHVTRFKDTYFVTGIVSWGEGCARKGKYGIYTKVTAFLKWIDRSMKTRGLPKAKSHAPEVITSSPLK

| SMILES | Ki (Coagulation factor X) | Ki (Coagulation factor IX) |
| --- | --- | --- |
| N=C(N)c1ccc2[nH]cc(C(CC(=O)Nc3ccc(-n4cnc5ccccc54)cc3)Cc3ccccc3)c2c1 (stereo not given) | 36 nM | 250 nM |
| N=C(N)c1ccc2[nH]cc(C(Cc3ccccc3)C(=O)NCc3ccc(-n4cnc5ccccc54)cc3)c2c1 (stereo not given) | 72 nM | 310 nM |
| Cn1cc(C(Cc2ccccc2)C(=O)Nc2ccc(-n3cnc4ccccc43)cc2F)c2cc(C(=N)N)ccc21 (stereo not given) | 160 nM | 360 nM |
| N=C(N)c1ccc2[nH]cc(C(CCc3ccccc3)C(=O)Nc3ccc(-n4cnc5ccccc54)cc3F)c2c1 (stereo not given) | 6.1 nM | 240 nM |
| N=C(N)c1ccc2[nH]cc(C(Cc3ccc4ccccc4c3)C(=O)Nc3ccc(-n4cnc5ccccc54)cc3F)c2c1 (stereo not given) | 28 nM | 98 nM |
| N=C(N)c1ccc2[nH]cc(C(Cc3ccccc3)C(=O)Nc3ccc(-n4cnc(-c5ccccc5)c4)cc3)c2c1 (stereo not given) | 79 nM | 270 nM |
| N=C(N)c1ccc2[nH]cc([C@H](Cc3ccccc3)C(=O)Nc3ccc(-n4cnc5ccccc54)cc3F)c2c1 | 26 nM | 820 nM |
| N=C(N)c1ccc2[nH]cc(C(Cc3ccccc3)C(=O)NCc3ccc(C(=O)Nc4nc5ccccc5[nH]4)cc3)c2c1 (stereo not given) | 810 nM | 930 nM |
| N=C(N)c1ccc2[nH]cc(CC(Cc3ccccc3)C(=O)Nc3ccc(-n4cnc5ccccc54)cc3)c2c1 (stereo not given) | 45 nM | 130 nM |
| CS(=O)(=O)c1ccc2nc(NC(=O)c3ccc(CNC(=O)C(Cc4ccccc4)c4c[nH]c5ccc(C(=N)N)cc45)cc3)[nH]c2c1 (stereo not given) | 1100 nM | 660 nM |
| N=C(N)c1ccc2[nH]cc(C(CC3CC3)C(=O)Nc3ccc(-n4cnc5ccccc54)cc3)c2c1 (stereo not given) | 14 nM | 3800 nM |
| N=C(N)c1ccc2[nH]cc(C(Cc3ccc(NC(=O)c4ccccc4)cc3)C(=O)Nc3ccc(-n4cnc5ccccc54)cc3)c2c1 (stereo not given) | 18 nM | 270 nM |
| N=C(N)c1ccc2[nH]cc(C(Cc3ccc(NS(=O)(=O)c4ccccc4)cc3)C(=O)Nc3ccc(-n4cnc5ccccc54)cc3)c2c1 (stereo not given) | 19 nM | 130 nM |
| N=C(N)c1ccc2[nH]cc(C(Cc3cccnc3)C(=O)Nc3ccc(-n4cnc5ccccc54)cc3)c2c1 (stereo not given) | 7 nM | 1200 nM |
| N=C(N)c1ccc2[nH]cc(C(Cc3ccccc3)C(=O)NCc3cccc(C(=O)Nc4nc5ccccc5[nH]4)c3)c2c1 (stereo not given) | 2600 nM | 1900 nM |

Compounds with a lower Ki (Coagulation factor X), results first:

| Ki (Coagulation factor X) | Ki (Coagulation factor IX) | SMILES |
| --- | --- | --- |
| 3.2 nM | 6700 nM | N=C(N)c1ccc2[nH]cc(CC(=O)Nc3ccc(-c4ccccc4S(N)(=O)=O)cc3)c2c1 |
| 3 nM | 480 nM | CC(C(=O)Nc1ccc(-n2cnc3ccccc32)cc1)c1c[nH]c2ccc(C(=N)N)cc12 (stereo not given) |
| 4 nM | 75 nM | N=C(N)c1ccc2[nH]cc(C(Cc3ccc(N)cc3)C(=O)Nc3ccc(-n4cnc5ccccc54)cc3)c2c1 (stereo not given) |
| 1.3 nM | 19 nM | N=C(N)c1ccc2[nH]cc([C@@H](Cc3ccccc3)C(=O)Nc3ccc(-n4cnc5ccccc54)cc3F)c2c1 |
| 0.63 nM | 660 nM | N=C(N)c1ccc2[nH]cc(C(Cc3ccccc3)C(=O)Nc3ccc(-c4ccccc4S(N)(=O)=O)cc3)c2c1 (stereo not given) |
| 2.8 nM | 160 nM | CCC(C(=O)Nc1ccc(-n2cnc3ccccc32)cc1)c1c[nH]c2ccc(C(=N)N)cc12 (stereo not given) |
| 1.8 nM | 59 nM | N=C(N)c1ccc2[nH]cc(C(Cc3cccc(C(=O)O)c3)C(=O)Nc3ccc(-n4cnc5ccccc54)cc3F)c2c1 (stereo not given) |
| 2.2 nM | 750 nM | CC(C)(C(=O)Nc1ccc(-n2cnc3ccccc32)cc1)c1c[nH]c2ccc(C(=N)N)cc12 |
| 5.6 nM | 300 nM | N=C(N)c1ccc2ccn(C(Cc3ccccc3)C(=O)Nc3ccc(-n4cnc5ccccc54)cc3F)c2c1 (stereo not given) |
| 2.5 nM | 63 nM | N=C(N)c1ccc2[nH]cc(C(Cc3ccccc3)C(=O)Nc3ccc(-n4cnc5ccccc54)cc3F)c2c1 (racemic) |
